pEC50, pIC50: −log10 of the molar value. Where two headings read alike, the source gives them in different places.
Legend:
[1] = molecular target: T1, HIV-1NL4-3 CA-NC protein (SEQ ID NO: 2) (Human immunodeficiency virus type 1 group M subtype B, UniProt P12493, G226D); test: Immobilized capsid assembly assay (CAA); type: biochemical; settings: for IC50: concentration for 50% inhibition of capsid assembly, 2 μM CA-NC, 2 hours at room temperature, read-out: IC50 (μM) CAA
T1 construct: HIV-1NL4-3 CA-NC, Gag residues 133-432; initiator Met (start codon introduced by PCR primer) (N); made in house; host or cells: E. coli BL21(DE3), pET-11a
From the text: (§1) SEQ ID NO: 1 is a nucleic acid of 900 base pairs encoding HIV-1NL4-3 CA-NC, Gag residues 133-432, having the CA G94D mutation (SEQ ID NO: 2). SEQ ID NO: 1, is transferred to pET-11a expression vector (Novagen™) by PCR amplification using primers that introduce an NdeI site and a start codon at the 5′-end and a BamHI site and a stop codon at the 3′-end. Resistance mutations in CA were identified by passage of the HIV-1 virus in the presence of compounds of the invention, namely V27A/I, K30R, S33G, V36T, T58I, G61E, G208A/R, E213G, K30R/T58I, K30R/G208R, V36T/G208R, S33G/T58I, S33G/G208R and T58I/G208R, all numbered with reference to SEQ ID NO: 2,. These resistance mutations may be introduced in the expression vector using the QuikChange® II Site-Directed Mutagenesis Kit (Stratagene) according to the manufacturer's instructions. SEQ ID NOS: 2 is expressed in the BL21(DE3) E. coli cells (Novagen™). Briefly, LB media is inoculated with overnight pre-cultures and grown at 37° C. until mid log-phase (Abs600 ˜0.6), protein expression is induced by addition of 0.5-1 mM isopropyl-β,D-thiogalactopyranoside (IPTG) and carried out for 4 to 6 hours at 30° C. Cells are harvested by centrifugation and pellets are stored at −80° C. until purification.
(§2) Purification of CA-NC (SEQ ID NO: 2) is as follows: 5 to 10 g of cell paste are lysed by sonication in 40 ml of Buffer A [20 mM Tris pH 7.5; 1 μM ZnCl2; 10 mM β-mercaptoethanol] supplemented with 0.5M NaCl and Complete EDTA-free® protease inhibitors tablets (Roche). Nucleic acids and cell debris are removed by adding 0.11 volumes of 0.2 M ammonium sulfate and an equivalent volume of 10% poly-(ethyleneimine) pH 8.0, stirring the sample for 20 minutes at 4° C., followed by centrifugation at 30 000×g for 20 minutes. SEQ ID NO: 2 is recovered from the supernatant by adding 0.35 volumes of saturated ammonium sulfate solution followed by centrifugation at 10 000×g for 15 minutes. The pellet is dissolved in 10 ml of Buffer A+0.1 M NaCl and dialyzed overnight in the same buffer but at 0.05 M NaCl (Dialysis Buffer). The sample is then cleared by centrifugation and passed on a 1-ml HiTrapTMSP HP column (GE Healthcare) pre-equilibrated with Dialysis Buffer. SEQ ID NO: 2 is eluted with Buffer A+0.5 M NaCl, fractions containing the protein are pooled; concentration determination is done by Abs280 using the calculated molar extinction coefficient (E=40220 M-1 cm-1).
Reacti-Bind Neutravidin Coated black 384-well plates (Pierce Cat#15402) are washed with 80 μl/well of Buffer A (50 mM Tris pH 8.0; 350 mM NaCl; 10 μM ZnSO4; 0.0025% CHAPS (w/v); 50 μg/ml bovine serum albumin (BSA); 1 mM DTT). Immobilization of a 5′-end biotin labeled (TG)25 oligonucleotide (Integrated DNA Technology Inc.) is carried out by adding 50 μl/well of a 25 nM solution of oligonucleotide in Buffer A+5 mg/ml of BSA (Sigma™) and incubating overnight. Unbound material is removed by two 80 μl/well washes with Buffer A. Assembly reactions are performed in 60 μl/well reactions comprising test compound, 100 nM of 5′-end fluorescein labeled (TG)25 oligonucleotide (Integrated DNA Technology Inc.) and 2 μM of CA-NC protein (SEQ ID NO: 2), using Buffer A+1% DMSO. Assembly reactions are incubated for 2 hours at room temperature and non-immobilized material is removed by two successive 80 μl/well washes with Buffer A. Finally, 80 μl/well of Buffer A+0.1% sodium dodecyl sulfate (SDS) is added and incubated for 15 minutes prior to quantification of captured fluorescence on a Victor2 plate reader (PerkinElmer Life Sciences) equipped with fluorescein excitation and emission filters using the standard manufacturer's settings for fluorescein fluorescence. The amount of captured fluorescence is considered to be proportional to the level of assembly. The IC50 values for each compound are generated by fitting inhibition curves from ten-point dilution series to the following equation: […]

[2] = system: HIV-1 replication in C8166 LTRluc cells; test: C8166 HIV-1 luciferase assay; type: cell-based; settings: Human immunodeficiency virus 1, 72 h, inhibition of HIV-1 replication, moi 0.005, 3 days
Protocol: The assay used to measure inhibition of HIV replication is as described in WO 2004/050643, pages 73-75, herein incorporated by reference, with the following modifications:
Serial dilutions of HIV-1 inhibitors are prepared in complete media from DMSO stock solutions. Eleven serial dilutions of desired concentration are prepared in a 1 mL deep well titer plate (96 wells). The 12th well contains complete media with no inhibitor and serves as the positive control. All samples contain the same concentration of DMSO 0.1% DMSO). Inhibitor is added, to triplicate wells, of a 96 well tissue culture treated clear view black microtiter plate (Corning Costar catalogue #3904). The total volume per well is 200 μL of media containing the cells and inhibitor. The last row is reserved for uninfected C8166 LTRluc cells to serve as the background blank control and the first row is media alone.
Count C8166 LTRluc cells and place in a minimal volume of complete RPMI 1640 in a tissue culture flask (ex. 30×10^6 cells in 10 mL media/25 cm^2 flask). Infect cells with HIV-1 at a moi of 0.005. Incubate cells for 1.5 hours at 37° C. on a rotating rack in a 5% CO2 incubator. Resuspend cells in complete RPMI to give a final concentration of 25,000-cells/well. Add cells to wells of 96 well microtiter plate containing inhibitors. Add 25,000 uninfected C8166—LTRluc cells/well in 200 μL complete RPMI to last row for background control. Incubate cells at 37° C. in 5% CO2 incubator for 3 days.

[3] = molecular target: T2, assembled HIV-1 capsid complexes (CA-NC protein, SEQ ID NO: 2) (Human immunodeficiency virus type 1 group M subtype B, UniProt P12493, G226D); test: Capsid disassembly assay (CDA); type: biochemical; settings: for IC50: concentration for 50% disassembly of assembled complexes, 2 hours at room temperature, read-out: IC50 (μM) CDA
T2 construct: HIV-1NL4-3 CA-NC, Gag residues 133-432; initiator Met (start codon introduced by PCR primer) (N); made in house; host or cells: E. coli BL21(DE3), pET-11a
From the text: The GAG polyprotein is the major structural protein required for HIV viral particle assembly. During the maturation process, Gag is cleaved by the viral protease and releases its four major proteins, matrix (MA), capsid (CA), nucleocapside (NC) and p6, as well as two spacer peptides termed SP1 and SP2. This triggers profound morphological changes to the viral particle as CA will reassemble to form the viral core, a structure that is essential for viral infectivity.
as §1, §2
Reacti-Bind Neutravidin Coated black 384-well plates (Pierce Cat#15402) are washed with 80 μl/well of Buffer A (50 mM Tris pH 8.0; 350 mM NaCl; 10 μM ZnSO4; 0.0025% CHAPS (w/v); 50 μg/ml BSA; 1 mM DTT). Immobilization of a 5′-end biotin labeled (TG)25 oligonucleotide (Integrated DNA Technology Inc.) is carried out by adding 50 μl/well of a 25 nM solution of oligonucleotide in Buffer A+5 mg/ml BSA and incubating overnight. Unbound material is removed by two 80 μl/well washes with Buffer A. Assembly reactions are performed in 60 μl/well reactions comprising 100 nM of 5′-end fluorescein labeled (TG)25 oligonucleotide (Integrated DNA Technology Inc.) and 2 μM of CA-NC protein (SEQ ID NO: 2), using Buffer A. Assembly reactions are incubated for 2 hours at room temperature and non-immobilized material is removed by washing 80 μl/well with Buffer A. Test compounds, serially diluted in Buffer A+0.125% dimethyl sulfoxide (DMSO), are added to the wells (60 μl/well) and incubated at room temperature for 2 hours. […]

| SMILES | IC50 [1] | pEC50 [2] | pIC50 [1] | pIC50 [3] | IC50 [3] |
| --- | --- | --- | --- | --- | --- |
| CN1c2ccc(Cl)cc2N(c2ccccc2)C(=O)c2scnc21 [Compound 6001] | 1 µM | 5.09 |  |  |  |
| COCCN/C=C1/C(=O)N(C)c2ccc(C(F)(F)F)cc2N(c2ccccc2)C1=O [Compound 1011] |  | 4.92 | 6.05 | 6.07 |  |
| CCN1C(=O)C(c2ccccc2)C(=O)N(c2ccccc2)c2cc(C(F)(F)F)ccc21 (centres unmarked) [Compound 2002] |  | 5.59 | 6.14 | 6.32 |  |
| COCCNCc1ccc(Cn2cnc3c2C(=O)N(c2ccccc2)c2cc(Cl)ccc2N3C)cc1 [Compound 5026] | 0.17 µM | 6.05 |  |  |  |
| CCN1C(=O)C2(CCc3cc(-c4ccnn4C)ccc32)C(=O)N(c2ccccc2)c2cc(C(F)(F)F)ccc21 (centres unmarked) [Compound 7012] |  | 6.70 |  | 6.70 |  |
| CCN1C(=O)N(c2ccccc2)C(=O)N(c2ccccc2)c2cc(C(F)(F)F)ccc21 [Compound 3011] | 0.63 µM | 6.22 |  |  | 0.18 µM |
| CN1c2cccc(F)c2N(c2ccccc2)C(=O)c2c1ncn2C [Compound 5005] | 0.32 µM | 6.40 |  |  |  |
| CCN1C(=O)C2(CCc3ccccc32)C(=O)N(c2ccccc2)c2cc(C(F)(F)F)ccc21 (racemic) [Compound 7001] |  | 5.82 | 6.14 | 6.34 |  |
| CCN1C(=O)N(c2ccc(C(=O)NC[C@@H]3CCCN3CC)cc2)C(=O)N(c2ccccc2)c2cc(C(F)(F)F)ccc21 [Compound 3055] |  | 6.40 |  |  | 0.13 µM |
| CN1C(=O)C(c2ccc(O)cc2)C(=O)N(c2ccccc2)c2cc(C(F)(F)F)ccc21 (centres unmarked) [Compound 2009] |  | 6.05 | 6.04 | 6.85 |  |
| CN1c2ccc(C(F)(F)F)cc2N(c2ccccc2)C(=O)c2c1ncn2C [Compound 5003] | 0.26 µM | 5.26 |  |  |  |
| CCN1C(=O)C(c2ccc(CN3CCNCC3)cc2)C(=O)N(c2ccccc2)c2cc(C(F)(F)F)ccc21 (centres unmarked) [Compound 2018] |  | 6.10 | 6.28 | 6.55 |  |
| CCN1C(=O)C(c2cccnc2)C(=O)N(c2ccccc2)c2cc(C(F)(F)F)ccc21 (centres unmarked) [Compound 2076] |  | 5.39 | 5.80 |  |  |
| CCN1C(=O)C(c2ccc(-c3cccnc3)cc2)C(=O)N(c2ccccc2)c2cc(C(F)(F)F)ccc21 (centres unmarked) [Compound 2030] |  | 6.40 | 6.41 | 6.49 |  |
| CCN1C(=O)N(c2ccc(C(=O)O)cc2)C(=O)N(c2ccccc2)c2cc(C(F)(F)F)ccc21 [Compound 3034] |  | 5.59 |  |  | 0.27 µM |
| CCN1C(=O)C(c2ccccc2)C(=O)N(c2cccs2)c2cc(C(F)(F)F)ccc21 (centres unmarked) [Compound 2003] |  | 5.60 | 6.09 | 6.41 |  |
| CCN1C(=O)C2(CCc3c2ccc(-c2cncnc2)c3OC)C(=O)N(c2ccccc2)c2cc(C(F)(F)F)ccc21 (centres unmarked) [Compound 7030] |  | 6.22 |  | 6.77 |  |
| CCN1C(=O)N(c2ccc(CO)cc2)C(=O)N(c2ccccc2)c2cc(C(F)(F)F)ccc21 [Compound 3027] |  | 6.15 |  |  | 0.1 µM |
| CN1c2ccc(Cl)cc2N(c2ccccc2)C(=O)c2cn(Cc3ccncc3)nc21 [Compound 4032] | 0.55 µM | 6.52 |  |  |  |
| CN1c2ccc(Cl)cc2N(c2ccccc2)C(=O)c2c[nH]nc21 [Compound 4007] | 0.31 µM | 5.11 |  |  |  |
| CCN1c2ccc(Cl)cc2N(c2ccccc2)C(=O)c2c1ncn2C [Compound 5001] | 0.36 µM | 5.82 |  |  |  |
| CCN1C(=O)N(c2ccc(O)c(-c3cccnc3)c2)C(=O)N(c2ccccc2)c2cc(C(F)(F)F)ccc21 [Compound 3014] | 0.31 µM | 6.70 |  |  | 0.14 µM |
| CCN1C(=O)C(c2cccc(-c3cccnc3)c2O)C(=O)N(c2ccccc2)c2cc(C(F)(F)F)ccc21 (centres unmarked) [Compound 2035] |  | 5.24 | 5.89 |  |  |
| CCN1C(=O)C2(C=C(C)c3cc(O)ccc32)C(=O)N(c2ccccc2)c2cc(C(F)(F)F)ccc21 (centres unmarked) [Compound 7037] |  | 6.00 |  | 6.52 |  |
| CCN1C(=O)/C(=C/NCCOC)C(=O)N(c2ccccc2)c2cc(Cl)ccc21 [Compound 1004] | 0.47 µM | 4.90 |  |  | 0.38 µM |
| CN1c2ccc(Cl)cc2N(c2ccccc2)C(=O)c2cn(C)nc21 [Compound 4002] | 0.71 µM | 5.16 |  |  |  |
